{"source": "patent US8686224B2", "about": "“Plant defense signal peptides” (priority 2005, dated 2014)", "key": {"[1]": {"biological_target": "T1, 180 kD AtPep1-binding protein (AtPep1 receptor, At1g73080) (Arabidopsis thaliana, UniProt Q9SSL9)", "T1 construct": "endogenous in cells", "T1 sequence (Q9SSL9 29-1123)": "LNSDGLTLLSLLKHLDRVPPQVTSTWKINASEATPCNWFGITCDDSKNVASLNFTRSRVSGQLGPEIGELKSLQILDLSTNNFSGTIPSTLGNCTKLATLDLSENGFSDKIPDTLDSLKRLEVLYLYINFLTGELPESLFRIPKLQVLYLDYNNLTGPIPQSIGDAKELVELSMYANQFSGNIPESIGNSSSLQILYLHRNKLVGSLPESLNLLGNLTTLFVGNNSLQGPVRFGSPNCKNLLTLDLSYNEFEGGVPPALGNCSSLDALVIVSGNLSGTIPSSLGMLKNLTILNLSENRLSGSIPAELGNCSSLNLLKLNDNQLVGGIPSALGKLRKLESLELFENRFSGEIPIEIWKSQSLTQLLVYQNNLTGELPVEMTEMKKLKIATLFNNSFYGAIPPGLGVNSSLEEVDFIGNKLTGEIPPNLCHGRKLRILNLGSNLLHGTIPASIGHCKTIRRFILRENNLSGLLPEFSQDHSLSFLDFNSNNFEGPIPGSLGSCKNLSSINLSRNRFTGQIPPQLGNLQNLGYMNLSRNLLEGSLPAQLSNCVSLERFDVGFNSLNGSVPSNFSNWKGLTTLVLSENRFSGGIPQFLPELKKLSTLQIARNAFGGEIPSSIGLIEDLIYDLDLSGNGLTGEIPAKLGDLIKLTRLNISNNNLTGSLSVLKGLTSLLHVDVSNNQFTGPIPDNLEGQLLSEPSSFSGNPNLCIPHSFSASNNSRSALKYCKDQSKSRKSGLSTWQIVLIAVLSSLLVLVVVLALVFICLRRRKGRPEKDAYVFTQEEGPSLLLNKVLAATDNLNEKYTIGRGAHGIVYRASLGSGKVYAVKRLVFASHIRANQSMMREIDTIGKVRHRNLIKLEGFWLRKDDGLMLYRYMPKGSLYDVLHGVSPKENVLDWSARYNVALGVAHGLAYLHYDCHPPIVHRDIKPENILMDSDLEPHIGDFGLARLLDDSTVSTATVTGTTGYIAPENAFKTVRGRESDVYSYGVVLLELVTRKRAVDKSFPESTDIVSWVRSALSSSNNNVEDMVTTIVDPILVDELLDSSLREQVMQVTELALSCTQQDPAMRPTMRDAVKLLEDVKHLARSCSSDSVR", "assay": "Photoaffinity labeling with 125I-azido-Cys-AtPep1, competition", "settings": "microsomal membranes of wild type and control SALK plants, preincubated with 2.5 nM AtPep1", "description": "Photoaffinity labeling. To 1 mL of cultured cells in darkness was added ^125I-azido-Cys-AtPep1 (0.25 nM final concentration as described above) and the cells were shaken for 10 min on an orbital shaker (160 rpm) at room temperature. The cells were transferred to a 1.5 mL glass tube, centrifuged at 10,000×g and the sedimented cells were dispersed in 1 mL cold MS medium containing 3% sucrose and centrifuged as above. This wash was repeated twice. The cells were resuspended in 1 mL MS medium and irradiated with UV-B for 10 min on ice to photoactivate the azido group to effect the crosslinking. The cells were washed with 1 mL MS medium, centrifuged as above, and resuspended in 400 μL of 5% SDS. The cells were disrupted by boiling for 30 min, and the insoluble debris was removed by centrifugation at 10,000×g. Proteins in the clear supernatant were precipitated by adding 1.25 volumes of methanol/chloroform (vol/vol). […]\nMicrosomal fractions were prepared from one-month-old plants by differential centrifugation as previously described (Scheer and Ryan, Proc. Natl. Acad. Sci. 99:9585-9590, 2002). […] The membranes were incubated for 60 min at approximately 4° C., irradiated with UV-B for 15 min, separated by SDS-PAGE, dried and analyzed by radioautography to identify labeled proteins."}, "[2]": {"test_system": "P. syringae pv. tomato DC3000 (Pst DC3000)", "assay": "Pst DC3000 inoculation of Arabidopsis leaves with peptide pre-infiltration", "type": "in vivo, Pseudomonas syringae", "from_the_text": "The resistance to P. irregulare requires the JA signaling pathway in Arabidopsis (Staswick et al, Plant J. 15: 747-754, 1998), and AtPep peptides induced PDF1.2, a marker gene for the JA response (Huffaker et al., Proc. Natl. Acad. Sci. USA 103: 10098-10103, Huffaker and Ryan, Proc. Natl. Acad. Sci. USA 104: 10732-10736, 2007). […] In order to examine this possibility, Arabidopsis plants were inoculated with P. syringae pv. tomato DC3000 (Pst DC3000) with or without AtPep1 pre-infiltration. Pst DC3000 was extracted from the infected leaves 4 days after infection and colony forming units (cfu/cm^2) were calculated. […] The reduction of Pst DC3000 growth was also not observed when the double mutant, pepr1-1/pepr2-1, was pre-infiltrated with AtPep1. […] Pre-infiltration of AtPep2-6 also attenuated Pst DC3000 growth to different degrees.\nTo assess the importance of AtPEPR1 and AtPEPR2 in the resistance to Pst DC3000 after infiltration of AtPep1, T-DNA insertional mutants were inoculated. When 1 μM AtPep1 was infiltrated into leaves one day prior to Pst DC3000 inoculation, the size of the necrotic regions were reduced in both wild type and single mutant lines, pepr1-1 and pepr2-1. […] Similar results were obtained when another set of mutant lines, pepr1-2, pepr2-2 and pepr1-2/pepr2-2, was used."}, "[3]": {"test_system": "wild type tobacco suspension-cultured cells", "assay": "Medium alkalinization of wild type and GUS expressing tobacco cells", "type": "cell-based", "settings": "wild type tobacco (b358 also GUS expressing) cells"}, "[4]": {"settings": "1 μM one day prior, pepr1-1/pepr2-1"}}, "note": "“Also recorded” adds a separate entry of the source."}
{"substance": "H-ATKVKAKQRGKEKVSSGRPGQHN-OH [AtPep1]", "values": [{"measurement": "photoaffinity labeled proteins after preincubation", "setting": "[1]", "value": "absent"}, {"measurement": "bacterial growth reduced to", "setting": "[2]; 1 μM infiltrated one day prior to inoculation, wild type", "value": "1/100"}, {"measurement": "bacterial growth reduced to", "setting": "[2]; 1 μM one day prior, pepr1-1", "value": "1/25"}, {"measurement": "colony growth in the double mutants", "setting": "[2]; [4]", "value": "no decrease in colony growth"}, {"measurement": "symptom development in double mutants", "setting": "[2]; [4]", "value": "did not affect symptom development"}, {"measurement": "bacterial growth reduced to", "setting": "[2]; 1 μM one day prior, pepr2-1", "value": "1/100"}, {"measurement": "size of the necrotic regions", "setting": "[2]; 1 μM one day prior, wild type and single mutants pepr1-1 and pepr2-1", "value": "reduced"}, {"measurement": "Pst DC3000 growth in double mutant pepr1-1/pepr2-1", "setting": "[2]; pre-infiltration", "value": "not observed"}, {"measurement": "attenuation of Pst DC3000 in fad3,7,8, npr1-1 and sid2-2 mutants", "setting": "[2]; pre-infiltration", "value": "differentially diminished"}, {"measurement": "effect on Pst DC3000 growth compared with flg22 pre-infiltration", "setting": "[2]; pre-infiltration, wild type", "value": "more effective than flg22 pre-infiltration"}, {"measurement": "Pst DC3000 growth in leaves after pre-infiltration", "setting": "[2]; wild type, cfu/cm^2 4 days after infection, AtPep1 10 nM solution", "value": "reduced Pst DC3000 growth in leaves"}, {"measurement": "alkalinization of the medium", "setting": "[3]", "value": "no alkalinization was detected; also recorded: did not respond"}]}
